The values that follow come from patent publication US11718631B2, “Sulphonamides and compositions thereof for treating conditions associated with NLRP activity” (Novartis AG, priority 2017, dated 2023).

Some results are limits rather than exact numbers.

T1 sequence (Q96P20 whole entry): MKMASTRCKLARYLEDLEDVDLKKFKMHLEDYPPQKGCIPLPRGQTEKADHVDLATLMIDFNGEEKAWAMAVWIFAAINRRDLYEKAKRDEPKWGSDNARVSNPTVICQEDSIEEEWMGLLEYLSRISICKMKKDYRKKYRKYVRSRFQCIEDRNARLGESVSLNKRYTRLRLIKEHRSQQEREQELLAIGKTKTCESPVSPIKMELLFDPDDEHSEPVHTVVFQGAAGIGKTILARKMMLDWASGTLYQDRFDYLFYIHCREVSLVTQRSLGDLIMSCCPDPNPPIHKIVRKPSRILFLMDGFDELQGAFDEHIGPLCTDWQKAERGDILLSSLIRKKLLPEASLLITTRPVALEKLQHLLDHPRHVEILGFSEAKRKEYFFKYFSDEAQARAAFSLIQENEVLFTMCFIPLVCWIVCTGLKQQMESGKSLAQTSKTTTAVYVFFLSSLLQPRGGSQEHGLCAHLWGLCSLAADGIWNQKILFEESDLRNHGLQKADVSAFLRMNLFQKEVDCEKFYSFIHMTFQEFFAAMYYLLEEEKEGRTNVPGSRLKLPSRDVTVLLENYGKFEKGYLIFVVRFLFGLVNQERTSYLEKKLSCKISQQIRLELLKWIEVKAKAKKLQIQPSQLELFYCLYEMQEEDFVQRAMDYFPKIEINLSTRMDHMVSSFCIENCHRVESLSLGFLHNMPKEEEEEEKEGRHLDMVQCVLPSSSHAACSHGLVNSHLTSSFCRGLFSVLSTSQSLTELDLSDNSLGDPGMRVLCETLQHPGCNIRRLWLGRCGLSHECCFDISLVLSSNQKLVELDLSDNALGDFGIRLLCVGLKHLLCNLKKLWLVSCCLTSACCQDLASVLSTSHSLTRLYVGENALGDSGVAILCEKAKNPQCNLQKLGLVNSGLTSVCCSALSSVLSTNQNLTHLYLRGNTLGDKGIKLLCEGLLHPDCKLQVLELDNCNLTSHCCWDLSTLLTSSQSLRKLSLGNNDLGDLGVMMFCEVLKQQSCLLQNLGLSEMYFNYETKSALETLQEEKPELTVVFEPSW

The first experiment has as its target T1, NLRP3 (Homo sapiens, UniProt Q96P20).
T1 construct: IL-1β Production in PMA-Differentiated THP-1 Cells Stimulated with Gramicidin; host or cells: THP-1 cells, PMA-differentiated
The experiment in a line: IL-1β production in PMA-differentiated THP-1 cells stimulated with gramicidin (hTHP-1 assay). In kind it is cell-based. The settings on record: hTHP-1 assay containing 2% fetal bovine serum; average IC50, class symbols; read-out: NLRP3 Antagonist, human THP1 NLRP3, IL-1b, Normalized: GeoMean IC50. The procedure: IL-1β Production in PMA-Differentiated THP-1 Cells Stimulated with Gramicidin.
THP-1 cells were purchased from the American Type Culture Collection and sub-cultured according to instructions from the supplier. […] Prior to the experiment THP-1 were treated with PMA (Phorbol 12-myristate 13-acetate) (20 ng/ml) for 16-18 hours. On the day of the experiment the media was removed and adherent cells were detached with trypsin for 5 minutes. […] A vehicle only control was run concurrently with each experiment. Final DMSO concentration was 0.38%.
THP-1 cells were purchased from the American Type Culture Collection and sub-cultured according to instructions from the supplier. […] Prior to the experiment THP-1 were treated with PMA (Phorbol 12-myristate 13-acetate) (20 ng/ml) for 16-18 hours. Compounds were dissolved in dimethyl sulfoxide (DMSO) to generate a 30 mM stock. On the day of the experiment the media was removed and adherent cells were detached with trypsin for 5 minutes. […] Final DMSO concentration was at 0.37%. Cells were incubated with compounds for 1 hour and then stimulated with gramicidin (5 μM) (Enzo) for 2 hours. Plates were then centrifuged at 340 g for 5 min. Cell free supernatant (40 μL) was collected using a 96-channel PlateMaster (Gilson) and the production of IL-1p was evaluated by HTRF (cisbio).
IL-1p Production in PMA-Differentiated THP-1 Cells Stimulated with Gramicidin.
THP-1 cells were purchased from the American Type Culture Collection and sub-cultured according to instructions from the supplier. […] Prior to the experiment, compounds were dissolved in dimethyl sulfoxide (DMSO) to generate a 30 mM stock. […] DMSO was backfilled in the plate to achieve a final DMSO assay concentration of 0.37%. The plate was then sealed and stored at room temperature until required.
THP-1 cells were treated with PMA (Phorbol 12-myristate 13-acetate) (20 ng/ml) for 16-18 hours. On the day of the experiment the media was removed and adherent cells were detached with trypsin for 5 minutes. […] The plates were incubated for 18 h at 4° C. and read using the preset HTRF program (donor emission at 620 nm, acceptor emission at 668 nm) of the SpectraMax i3x spectrophotometer (Molecular Devices, software SoftMax 6).
As for `CC(C)c1cc(C2CCC(C)(C)CC2)cc(C(C)C)c1CC(=O)NS(=O)(=O)c1ccc(CN(C)C)cc1` [Compound 316, N-{4-[(dimethylamino)methyl]benzene-sulfonyl}-2-[4-(4,4-dimethylcyclohexyl)-2,6-bis(propan-2-yl)phenyl]acetamide], the IC50 fell in the range of 1000 to 5000 nM.
On the same count and under the same terms, with `CC(C)c1cc(C2CCCc3ccccc32)cc(C(C)C)c1CC(=O)NS(=O)(=O)c1ccc(CN(C)C)cc1` (stereo not shown) [Compound 321, 2-[2,6-bis(propan-2-yl)-4-(1,2,3,4-tetrahydronaphthalen-1-yl)phenyl]-N-{4-[(dimethylamino)methyl]benzene-sulfonyl}acetamide] the figure was 1000 to 5000 nM; with `CC(C)c1cc(C2CCc3ccccc32)cc(C(C)C)c1CC(=O)NS(=O)(=O)c1ccc(CN(C)C)cc1` (stereo not shown) [Compound 322, 2-[4-(2,3-dihydro-1H-inden-1-yl)-2,6-bis(propan-2-yl)phenyl]-N-{4-[(dimethylamino)methyl]benzene-sulfonyl}acetamide], 200 to 1000 nM.
Still for that read-out and setting: with `CC(C)c1cc(C2Cc3ccccc3C2)cc(C(C)C)c1CC(=O)NS(=O)(=O)c1ccc(CN(C)C)cc1` [Compound 323, 2-[4-(2,3-dihydro-1H-inden-2-yl)-2,6-bis(propan-2-yl)phenyl]-N-{4-[(dimethylamino)methyl]benzene-sulfonyl}acetamide] the figure was 1000 to 5000 nM.
The same measure, in the same setting: with `CC(C)c1cc(C#CC2CCCCC2)cc(C(C)C)c1CC(=O)NS(=O)(=O)c1ccc(CN(C)C)cc1` [Compound 324, 2-[4-(2-cyclohexylethynyl)-2,6-bis(propan-2-yl)phenyl]-N-{4-[(dimethylamino)methyl]benzene-sulfonyl}acetamide] the figure was 40 to 200 nM; with `CC(C)c1cc(CCC2CCCC2)cc(C(C)C)c1CC(=O)NS(=O)(=O)c1ccc(CN(C)C)cc1` [Compound 325, 2-[4-(2-cyclopentylethyl)-2,6-bis(propan-2-yl)phenyl]-N-{4-[(dimethylamino)methyl]benzene-sulfonyl}acetamide], 1000 to 5000 nM.
As for `CC(C)c1cc(C2CCCC2)cc(C(C)C)c1CC(=O)NS(=O)(=O)c1ccc(CN(C)C)cc1` [Compound 355, 2-[4-cyclopentyl-2,6-bis(propan-2-yl)phenyl]-N-{4-[(dimethylamino)methyl]benzene-sulfonyl}acetamide], the IC50 fell in the range of 5000 to 30000 nM.
Turning to `CC(C)c1cc(C#CC2CCCC2)cc(C(C)C)c1CC(=O)NS(=O)(=O)c1ccc(CN(C)C)cc1` [Compound 370, 2-[4-(2-cyclopentylethynyl)-2,6-bis(propan-2-yl)phenyl]-N-{4-[(dimethylamino)methyl]benzene-sulfonyl}acetamide], the IC50 lay within 40 to 200 nM.
As to `CC(C)c1cc(CC2=CCCCC2)cc(C(C)C)c1CC(=O)NS(=O)(=O)c1ccc(CN(C)C)cc1` [Compound 377, 2-[4-(cyclohex-1-en-1-ylmethyl)-2,6-bis(propan-2-yl)phenyl]-N-{4-[(dimethylamino)methyl]benzenesulfonyl}acetamide], the IC50 fell in the range of 1000 to 5000 nM.
As for `CC(C)c1cc(CC2CCCCC2)cc(C(C)C)c1CC(=O)NS(=O)(=O)c1ccc(CN(C)C)cc1` [Compound 378, 2-[4-(cyclohexylmethyl)-2,6-bis(propan-2-yl)phenyl]-N-{4-[(dimethylamino)methyl]benzenesulfonyl}acetamide], the IC50 fell in the range of 5000 to 30000 nM.
Same read-out and setting: with `C#Cc1cc(C(C)C)c(CC(=O)NS(=O)(=O)c2ccc(C(C)N(C)C)cc2)c(C(C)C)c1` (stereo not shown) [Compound 379] the figure was 1000 to 5000 nM.

The same experiment, now with this note: hTHP-1 assay containing 2% fetal bovine serum; average IC50, given as numeric bound; read-out: NLRP3 Antagonist, human THP1 NLRP3, IL-1b, Normalized: GeoMean IC50.
For the molecule `CC(C)c1cc(C(O)c2ccccc2)cc(C(C)C)c1CC(=O)NS(=O)(=O)c1ccc(CN(C)C)cc1` (stereo not shown) [Compound 372, N-{4-[(dimethylamino)methyl]benzenesulfonyl}-2-(4-[hydroxy(phenyl)methyl]-2,6-bis(propan-2-yl)phenyl)acetamide], the IC50 is above 30000 nM.
Still for that read-out and setting: with `CC(C)c1cc(C(=O)c2ccccc2)cc(C(C)C)c1CC(=O)NS(=O)(=O)c1ccc(CN(C)C)cc1` [Compound 373, 2-[4-benzoyl-2,6-bis(propan-2-yl)phenyl]-N-{4-[(dimethylamino)methyl]benzenesulfonyl}acetamide] the figure was above 30000 nM.
